This is an account of results in the C3SDB collision cross section collection.

Each structure is given as a SMILES string.

The conditions of this data set: instrument: TW, calibrated with polyalanine and drug standards.

For the molecule `C#C[C@]1(O)CC[C@H]2[C@@H]3CCC4=CC(=O)CC[C@@H]4[C@H]3CC[C@@]21CC` [NORGESTREL], the “collision cross section (N2)” value ([M+H]+) was determined as 178.6 Å². As to `CNCCC=C1c2ccccc2CCc2ccccc21` [NORTRIPTYLINE], the “collision cross section (N2)” value ([M+H]+) is 163.1 Å². For the molecule `C=C(C)[C@H]1COc2cc3oc(=O)ccc3cc2O1` [OBLIQUIN], the “collision cross section (N2)” value ([M+H]+) turned out to be 150.1 Å².

For `COc1ccc(CC(=O)c2ccc(O)cc2O)cc1` [ONONETIN], the “collision cross section (N2)” value ([M+H]+) is recorded as 157.4 Å². In the case of `CN1CCCN=C1/C=C/c1cccc(O)c1` [OXANTEL], the “collision cross section (N2)” value ([M+H]+) is 152.6 Å². Take `CN(C(=O)CN(CCO)CC(=O)N(C)C(C)(C)Cc1ccccc1)C(C)(C)Cc1ccccc1` [OXETHAZAINE]: where the note is “[M+H]+”, the “collision cross section (N2)” value worked out at 213.7 Å². Turning to `COc1cc2c(cc1-c1cc3cc4ccoc4cc3oc1=O)OCO2` [PACHYRRHIZIN], where the note is “[M+H]+”, the “collision cross section (N2)” value was 170.7 Å². On the same count and under the same terms, the same measure for `COc1ccnc(CS(=O)c2nc3ccc(OC(F)F)cc3[nH]2)c1OC` (configuration not stated) [PANTOPRAZOLE]: 183.4 Å²; for `Oc1ccc(Cl)cc1` [PARACHLOROPHENOL]: 108.8 Å²; for `OC1(c2ccc(Cl)c(C(F)(F)F)c2)CCN(CCCC(c2ccc(F)cc2)c2ccc(F)cc2)CC1` [PENFLURIDOL]: 219.1 Å². With `C1CCc2nnnn2CC1` [PENTYLENETETRAZOL], the “collision cross section (N2)” value ([M+H]+) is reported as 124.5 Å². For the molecule `CCOc1ccc(NC(C)=O)cc1` [PHENACETIN], for the setting “[M+H]+”, the “collision cross section (N2)” value was found to be 140.5 Å². Still for that read-out and setting: the same measure for `O=C1OC(c2ccc(O)cc2)(c2ccc(O)cc2)c2ccccc21` [PHENOLPHTHALEIN]: 172.1 Å². With `CC(C)=CC1C(C(=O)OCc2cccc(Oc3ccccc3)c2)C1(C)C` (configuration not stated) [PHENOTHRIN], the “collision cross section (N2)” value ([M+H]+) came out at 187.5 Å². Turning to `Nc1ccc(C(=O)Oc2ccccc2)c(O)c1` [PHENYL AMINOSALICYLATE], the “collision cross section (N2)” value ([M+H]+) worked out at 163.4 Å². In the case of `CCCCC1C(=O)N(c2ccccc2)N(c2ccccc2)C1=O` [PHENYLBUTAZONE], the “collision cross section (N2)” value ([M+H]+) is recorded as 172.4 Å². With `CC(C)(O)[C@@H]1[C@H]2OC(=O)[C@@H]1[C@]1(O)C[C@H]3O[C@]34C(=O)O[C@H]2[C@]14C` [PICROTIN], for the setting “[M+Na]+”, the “collision cross section (N2)” value turned out to be 173.7 Å². `C=C(C)[C@@H]1[C@H]2OC(=O)[C@@H]1[C@]1(O)C[C@H]3O[C@]34C(=O)O[C@H]2[C@]14C` [PICROTOXININ]: the “collision cross section (N2)” value ([M+Na]+) was 168.7 Å².

For `COc1c(OC)c2occc2c2oc(=O)ccc12` [PIMPINELLIN], the “collision cross section (N2)” value ([M+H]+) amounted to 146.4 Å². Regarding `CC(N=C(NC#N)Nc1ccncc1)C(C)(C)C` (configuration not stated) [PINACIDIL], where the note is “[M+H]+”, the “collision cross section (N2)” value was determined as 165.2 Å². `O=C(O)/C=C/C=C/c1ccc2c(c1)OCO2` [PIPERIC ACID]: the “collision cross section (N2)” value ([M+H]+) is given as 138.6 Å².

In the case of `O=C(/C=C/C=C/c1ccc2c(c1)OCO2)N1CCCCC1` [PIPERINE], the “collision cross section (N2)” value ([M+H]+) is given as 171.4 Å². Turning to `CCn1cc(C(=O)O)c(=O)c2cnc(N3CCCC3)nc21` [PIROMIDIC ACID], for the setting “[M+H]+”, the “collision cross section (N2)” value worked out at 161.1 Å². For `CN1C(C(=O)Nc2ccccn2)=C(O)c2ccccc2S1(=O)=O` [PIROXICAM], for the setting “[M+H]+”, the “collision cross section (N2)” value worked out at 170.7 Å². Same read-out and setting: the same measure for `CC(C)c1c(O)c(-c2cc3c(c(C(C)C)c2O)CCC2C(C)(C)CCC[C@]32C)cc2c1CCC1C(C)(C)CCC[C@]21C` (some centres not stated) [PODOTOTARIN]: 255.6 Å². The same measure, in the same setting: the same measure for `CC(C)=CCc1c2c(c3occ(-c4ccc(O)c(O)c4)c(=O)c3c1O)C=CC(C)(C)O2` [POMIFERIN]: 205.8 Å²; for `CC(=O)OCC(=O)[C@@]1(O)CC[C@H]2[C@@H]3CCC4=CC(=O)C=C[C@]4(C)[C@H]3[C@@H](O)C[C@@]21C` [PREDNISOLONE ACETATE]: 194 Å². In the case of `C[C@]12C=CC(=O)C=C1CC[C@@H]1[C@@H]2C(=O)C[C@@]2(C)[C@H]1CC[C@]2(O)C(=O)CO` [PREDNISONE], where the note is “[M+H]+”, the “collision cross section (N2)” value amounted to 181.8 Å². For the molecule `CCC1(c2ccccc2)C(=O)NCNC1=O` [PRIMIDONE], for the setting “[M+H]+”, the “collision cross section (N2)” value came to 146.9 Å². `CCCn1cnc2c1c(=O)n(CCCCC(C)=O)c(=O)n2C` [PROPENTOFYLLINE]: the “collision cross section (N2)” value ([M+H]+) came to 168.3 Å². Regarding `CCCc1cc(=O)[nH]c(=S)[nH]1` [PROPYLTHIOURACIL], for the setting “[M+H]+”, the “collision cross section (N2)” value is reported as 134.7 Å². As for `CCCc1cc(C(N)=S)ccn1` [PROTIONAMIDE], the “collision cross section (N2)” value ([M+H]+) was 141.3 Å². Still for that read-out and setting: the same measure for `CC[C@@H](C)C(=O)O[C@H]1[C@H](O)[C@H]2[C@@H](CN3C[C@@H](C)CC[C@H]3[C@@]2(C)O)[C@@H]2C[C@]34O[C@]5(O)[C@@H](OC(=O)[C@@](C)(O)CC)CC[C@@]3(C)[C@@H]5[C@@H](OC(C)=O)[C@@H](OC(C)=O)[C@H]4[C@@]21O` [PROTOVERATRINE A]: 285.2 Å²; for `CC[C@@H](C)C(=O)O[C@H]1[C@H](O)[C@H]2[C@@H](CN3C[C@@H](C)CC[C@H]3[C@@]2(C)O)[C@@H]2C[C@]34O[C@]5(O)[C@@H](OC(=O)[C@](C)(O)[C@@H](C)O)CC[C@@]3(C)[C@@H]5[C@@H](OC(C)=O)[C@@H](OC(C)=O)[C@H]4[C@@]21O` [PROTOVERATRINE B]: 287 Å².

Take `CCc1nc(N)nc(N)c1-c1ccc(Cl)cc1` [PYRIMETHAMINE]: the “collision cross section (N2)” value ([M+H]+) came out at 155.8 Å². As for `Cc1ncc(CSSCc2cnc(C)c(O)c2CO)c(CO)c1O` [PYRITINOL], the “collision cross section (N2)” value ([M+H]+) is recorded as 173.4 Å². For the molecule `O=c1c(O)c(-c2ccc(O)c(O)c2)oc2cc(O)cc(O)c12` [QUERCETIN], the “collision cross section (N2)” value ([M+H]+) stood at 163.4 Å². Turning to `O=C(O)c1cccnc1C(=O)O` [QUINOLINIC ACID], for the setting “[M+H]+”, the “collision cross section (N2)” value was 130.2 Å².

Take `Cc1c(NC(C)C)c(=O)n(-c2ccccc2)n1C` [RAMIFENAZONE]: the “collision cross section (N2)” value ([M+H]+) was found to be 156.5 Å². For the molecule `COc1ccccc1OCC(O)CN1CCN(CC(=O)Nc2c(C)cccc2C)CC1` (configuration not stated) [RANOLAZINE], the “collision cross section (N2)” value ([M+H]+) came out at 205.2 Å². Same read-out and setting: as for `COC(=O)[C@H]1[C@H]2C[C@@H]3c4[nH]c5cc(OC)ccc5c4CCN3C[C@H]2C[C@@H](OC(=O)c2cc(OC)c(OC)c(OC)c2)[C@@H]1OC` [RESERPINE], the figure is 247.3 Å². The same measure, in the same setting: the same measure for `COc1ccc(/C=C/c2cc(O)cc(O)c2)cc1` [RESVERATROL 4'-METHYL ETHER]: 157.3 Å². The same measure, in the same setting: as for `COc1ccc(-c2coc3c(O)c(OC)ccc3c2=O)cc1` [RETUSIN 7-METHYL ETHER], the figure is 164.1 Å²; as for `COc1cc(O)c2c(=O)c(OC)c(-c3ccc(OC)c(OC)c3)oc2c1` [RETUSIN], 180.8 Å². Take `C[C@@H]1O[C@@H](O[C@H]2[C@H](Oc3cc(O)c4c(=O)cc(-c5ccc(O)cc5)oc4c3)O[C@H](CO)[C@@H](O)[C@@H]2O)[C@H](O)[C@H](O)[C@H]1O` [RHOIFOLIN]: the “collision cross section (N2)” value ([M+H]+) came out at 231.9 Å².

`CO[C@H]1/C=C/O[C@@]2(C)Oc3c(C)c(O)c4c(O)c(c5c(nc6cc(C)ccn65)c4c3C2=O)NC(=O)/C(C)=C\C=C\[C@H](C)[C@H](O)[C@@H](C)[C@@H](O)[C@@H](C)[C@H](OC(C)=O)[C@@H]1C` [RIFAXIMIN]: the “collision cross section (N2)” value ([M+H]+) is given as 267.8 Å². Consider `CCCCCCCCCCCC[C@@H](C(=O)O)[C@H](C)C(=O)O` [ROCCELLIC ACID], for which, for the setting “[M+Na]+”, the “collision cross section (N2)” value is listed as 186.2 Å². As to `CN(CCOc1ccc(CC2SC(=O)NC2=O)cc1)c1ccccn1` (configuration not stated) [ROSIGLITAZONE], where the note is “[M+H]+”, the “collision cross section (N2)” value was 172.6 Å². On the same count and under the same terms, the same measure for `C=C(C)[C@H]1Cc2c(ccc3c2O[C@@H]2COc4cc(OC)c(OC)cc4[C@@H]2C3=O)O1` [ROTENONE]: 193.2 Å². Consider `O=[N+]([O-])c1cc([As](=O)(O)O)ccc1O` [ROXARSONE], for which, for the setting “[M+H]+”, the “collision cross section (N2)” value turned out to be 145.5 Å².

`O=C(Oc1ccccc1C(=O)O)c1ccccc1O` [SALSALATE]: the “collision cross section (N2)” value ([M+H]+) was 151.3 Å². Same read-out and setting: as for `COc1cc2c(cc1OC)C(C)NCC2` (configuration not stated) [SALSOLIDINE], the figure is 150.9 Å². In the case of `C[C@@H]1CC[C@@]2(NC1)O[C@H]1C[C@H]3[C@@H]4CC=C5C[C@@H](O)CC[C@]5(C)[C@H]4CC[C@]3(C)[C@H]1[C@@H]2C` [SOLASODINE], under “[M+H]+”, the “collision cross section (N2)” value is 207.8 Å². The same measure, in the same setting: as for `CO[C@@H]1[C@@H](OC2OC(C)C(OC3CC(C)(O)C(O)C(C)O3)C(N(C)C)C2O)[C@@H](CC=O)C[C@@H](C)[C@@H](OC2CCC(N(C)C)C(C)O2)/C=C/C=C/C[C@@H](C)OC(=O)C[C@H]1O` (some centres not stated) [SPIRAMYCIN], the figure is 317 Å². For the molecule `C[C@]12CC[C@H]3[C@@H](CC[C@]4(O)C[C@@H](O)CC[C@]34C=O)[C@@]1(O)CC[C@@H]2C1=CC(=O)OC1` [STROPHANTHIDIN], for the setting “[M+H]+”, the “collision cross section (N2)” value was 196.7 Å². With `OC[C@H]1O[C@H](O[C@]2(CCl)O[C@H](CCl)[C@@H](O)[C@@H]2O)[C@H](O)[C@@H](O)[C@H]1Cl` [SUCRALOSE], the “collision cross section (N2)” value ([M+Na]+) came to 177.2 Å². For `CC(=O)NS(=O)(=O)c1ccc(N)cc1` [SULFACETAMIDE], the “collision cross section (N2)” value ([M+H]+) was determined as 146.9 Å².

For `Cc1cc(C)nc(NS(=O)(=O)c2ccc(N)cc2)n1` [SULFAMETHAZINE], the “collision cross section (N2)” value ([M+H]+) is recorded as 161.7 Å². Still for that read-out and setting: as for `Nc1ccc(S(=O)(=O)Nc2nccs2)cc1` [SULFATHIAZOLE], the figure is 150.8 Å². `O=C1C(CCS(=O)c2ccccc2)C(=O)N(c2ccccc2)N1c1ccccc1` (configuration not stated) [SULFINPYRAZONE]: the “collision cross section (N2)” value ([M+H]+) is reported as 193.5 Å². Turning to `Cc1noc(NS(=O)(=O)c2ccc(N)cc2)c1C` [SULFISOXAZOLE], the “collision cross section (N2)” value ([M+H]+) was found to be 159.1 Å². As for `CCN1CCCC1CNC(=O)c1cc(S(N)(=O)=O)ccc1OC` (configuration not stated) [SULPIRIDE], under “[M+H]+”, the “collision cross section (N2)” value came out at 183.3 Å².
